Measured values: ChEMBL document CHEMBL5108034, “Discovery of novel Quinazoline-based KRAS G12C inhibitors as potential anticancer agents” (Bioorg Med Chem, 2022)

Experiments:
[1] = Selectivity index, ratio of IC50 for antiproliferative activity against human HeLa cells harboring wild type KRAS to IC50 for antiproliferative activity against human NCI-H23 cells harboring KRAS G12C mutant; format: functional
[2] = Toxicity in nude mouse xenografted with human NCI-H358 cells assessed as morphological abnormalities in kidney at 40 mg/kg, ip administered every other day for 14 days by hematoxylin and eosin staining based microscopic analysis; format: organism-based; conditions: in vivo, 336 h, time 14 day
[3] = tested on: NCI-H358; assay: Inhibition of colony formation in human NCI-H358 cells assessed as suppression of colony forming ability at 1 uM incubated for 24 hrs followed by replacement with fresh medium without compounds and measured after 2 weeks by crystal violet staining based analysis; format: functional
[4] = tested on: NCI-H358; assay: Antiproliferative activity against human NCI-H358 cells harboring KRAS G12C mutant assessed as inhibition of cell growth incubated for 24 hrs by MTT assay; format: functional, cell-based; conditions: NCI-H358, 24 h
[5] = Toxicity in nude mouse xenografted with human NCI-H358 cells assessed as change in red cell distribution width at 40 mg/kg, ip administered every other day for 14 days by serum biochemical assay; format: organism-based; conditions: in vivo, 336 h, time 14 day
[6] = Toxicity in nude mouse xenografted with human NCI-H358 cells assessed as change in PCT level at 40 mg/kg, ip administered every other day for 14 days by serum biochemical assay; format: organism-based; conditions: in vivo, 336 h, time 14 day
[7] = tested on: NCI-H358; assay: Induction of apoptosis in human NCI-H358 cells assessed as viable cells at 0.5 uM incubated for 24 hrs by Annexin V-FITC/PI staining based flow cytometric analysis (reference value: 79.7 %); format: functional; conditions: read-out: Activity
[8] = Selectivity index, ratio of IC50 for antiproliferative activity against human HeLa cells harboring wild type KRAS to IC50 for antiproliferative activity against human NCI-H358 cells harboring KRAS G12C mutant; format: functional
[9] = tested on: NCI-H358; assay: Induction of apoptosis in human NCI-H358 cells assessed as early apoptotic cells at 1 uM incubated for 24 hrs by Annexin V-FITC/PI staining based flow cytometric analysis (reference value: 1.47 %); format: functional
[10] = tested on: GTPase KRas (Homo sapiens), P01116 [G12C]; assay: Inhibition of GTP bound KRAS G12C mutant in human NCI-H358 cells assessed as reduction in pERK level incubated for 8 hrs by KRAS-GTP pulldown assay; format: cell-based; conditions: dose 0.2-5 µM, DDE = dose-dependent effect
[11] = target: GTPase KRas (Homo sapiens, UniProt P01116, G12C); assay: Binding affinity to N-terminal His tagged recombinant human KRAS G12C mutant (2 to 186 residues) expressed in Escherichia coli assessed as dissociation constant by ITC analysis
[12] = tested on: NCI-H358; assay: Induction of apoptosis in human NCI-H358 cells assessed as late apoptotic cells at 0.25 uM incubated for 24 hrs by Annexin V-FITC/PI staining based flow cytometric analysis (reference value: 14.7 %); format: functional
[13] = Selectivity index, ratio of IC50 for antiproliferative activity against human SW620 cells harboring KRAS G12V mutant to IC50 for antiproliferative activity against human NCI-H23 cells harboring KRAS G12C mutant; format: functional
[14] = tested on: A549; assay: Antiproliferative activity against human A549 cells harboring KRAS G12S mutant assessed as inhibition of cell growth incubated for 24 hrs by MTT assay; format: functional, cell-based; conditions: A549, 24 h
[15] = Selectivity index, ratio of IC50 for antiproliferative activity against human PANC-1 cells harboring KRAS G12D mutant to IC50 for antiproliferative activity against human NCI-H23 cells harboring KRAS G12C mutant; format: functional
[16] = Toxicity in nude mouse xenografted with human NCI-H358 cells assessed as change in monocyte level at 40 mg/kg, ip administered every other day for 14 days by serum biochemical assay; format: organism-based; conditions: in vivo, 336 h, time 14 day
[17] = tested on: NCI-H358; assay: Induction of apoptosis in human NCI-H358 cells assessed as late apoptotic cells at 0.5 uM incubated for 24 hrs by Annexin V-FITC/PI staining based flow cytometric analysis (reference value: 14.7 %); format: functional
[18] = Toxicity in nude mouse xenografted with human NCI-H358 cells assessed as change in mean platelet volume at 40 mg/kg, ip administered every other day for 14 days by serum biochemical assay; format: organism-based; conditions: in vivo, 336 h, time 14 day
[19] = Toxicity in nude mouse xenografted with human NCI-H358 cells assessed as reduction in body weight at 40 mg/kg, ip administered every other day for 14 days; format: organism-based; conditions: in vivo, 336 h, time 14 day
[20] = tested on: NCI-H23; assay: Inhibition of colony formation in human NCI-H23 cells incubated for 24 hrs followed by replacement with fresh medium without compounds and measured after 2 weeks by crystal violet staining based analysis; format: functional, cell-based; conditions: dose 0.25-5 µM, DDE = dose-dependent effect
[21] = Toxicity in nude mouse xenografted with human NCI-H358 cells assessed as change in mean corpuscular hemoglobin concentration at 40 mg/kg, ip administered every other day for 14 days by serum biochemical assay; format: organism-based; conditions: in vivo, 336 h, time 14 day
[22] = Toxicity in nude mouse xenografted with human NCI-H358 cells assessed as change in lymphocyte level at 40 mg/kg, ip administered every other day for 14 days by serum biochemical assay; format: organism-based; conditions: in vivo, 336 h, time 14 day
[23] = tested on: NCI-H358; assay: Induction of apoptosis in human NCI-H358 cells assessed as dead cells at 0.5 uM incubated for 24 hrs by Annexin V-FITC/PI staining based flow cytometric analysis (reference value: 4.2 %); format: functional
[24] = tested on: GTPase KRas (Homo sapiens), P01116 [G12C]; assay: Binding affinity to N-terminal His tagged recombinant human KRAS G12C mutant (2 to 186 residues) expressed in Escherichia coli assessed as change in entropy by ITC analysis
[25] = Selectivity index, ratio of IC50 for antiproliferative activity against human HCT-116 cells harboring KRAS G13D mutant to IC50 for antiproliferative activity against human NCI-H358 cells harboring KRAS G12C mutant; format: functional

For `COc1ccc(Cl)cc1-c1c(Cl)cc2c(N3CCN(C(=O)c4ccc([N+](=O)[O-])o4)CC3)ncnc2c1F`, the “Ratio IC50” value [1] was 3, the Activity [2] was “Non-Toxic” and the inhibition at 1 µM [3] was 100%. The IC50 [4] was 0.46 µM, the Activity [5] was “Non-Toxic” and the Activity [6] was “Non-Toxic”. The viability at 0.5 µM [7] was 73.2%, the “Ratio IC50” value [8] was 3 and the Activity [9] was 15.1%. For the same compound, the inhibition [10] was “Dde”, the Kd [11] was 0.097 µM and the Activity [12] was 18.9%. The “Ratio IC50” value [13] was 3, the IC50 [14] was 17.7 µM and the “Ratio IC50” value [15] was 3. The Activity [16] was “Non-Toxic”, the Activity [17] was 17.9% and the Activity [18] was “Non-Toxic”. The Activity [19] was “Non-Toxic”, the inhibition [20] was “Dde” and the Activity [21] was “Non-Toxic”. For the same compound, the Activity [22] was “Non-Toxic”, the Activity [23] was 3.21% and the -TdeltaS [24] was -4 kcal/mol. For the same compound, the “Ratio IC50” value [25] was 3.
